Test results reported in patent US9693556B2, “Herbicidal pyridazinone derivatives” (SYNGENTA LIMITED, priority 2011, dated 2017).

Tests used:
Assay type in all cases: in vivo
[1] = tested on: Amaranthus retoflexus (AMARE); test: Post-emergence herbicidal glasshouse test on Amaranthus retoflexus; conditions: post-emergence; 1000 g/h; evaluated after 13 days
In short: (§1)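 Scoring scale: 5=80-100%, 4=60-79%, 3=40-59%, 2=20-39%, 1=0-19% damage, assessed on day 13. Compound sprayed at 1000 g/h on soil-grown plants (day 1 pre-, day 8 post-emergence) kept at 24/16 °C, 14 h light.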

[2] = tested on: Setaria faberi (SETFA); test: Post-emergence herbicidal glasshouse test on Setaria faberi; conditions: post-emergence; 1000 g/h; evaluated after 13 days
In short: as §1

[3] = tested on: Solanum nigrum (SOLNI); test: Pre-emergence herbicidal glasshouse test on Solanum nigrum; conditions: pre-emergence; 1000 g/h; evaluated after 13 days
In short: as §1

[4] = tested on: Ipomoea hederacea (IPOHE); test: Post-emergence herbicidal glasshouse test on Ipomoea hederacea; conditions: post-emergence; 1000 g/h; evaluated after 13 days
In short: as §1

[5] = tested on: Alopecurus myosuroides (ALOMY); test: Post-emergence herbicidal glasshouse test on Alopecurus myosuroides; conditions: post-emergence; 1000 g/h; evaluated after 13 days
In short: as §1

[6] = tested on: Solanum nigrum (SOLNI); test: Post-emergence herbicidal glasshouse test on Solanum nigrum; conditions: post-emergence; 1000 g/h; evaluated after 13 days
In short: as §1

[7] = tested on: Amaranthus retoflexus (AMARE); test: Pre-emergence herbicidal glasshouse test on Amaranthus retoflexus; conditions: pre-emergence; 1000 g/h; evaluated after 13 days
In short: as §1

[8] = tested on: Echinochloa crus-galli (ECHCG); test: Pre-emergence herbicidal glasshouse test on Echinochloa crus-galli; conditions: pre-emergence; 1000 g/h; evaluated after 13 days
In short: as §1

[9] = tested on: Ipomoea hederacea (IPOHE); test: Pre-emergence herbicidal glasshouse test on Ipomoea hederacea; conditions: pre-emergence; 1000 g/h; evaluated after 13 days
In short: as §1

[10] = tested on: Setaria faberi (SETFA); test: Pre-emergence herbicidal glasshouse test on Setaria faberi; conditions: pre-emergence; 1000 g/h; evaluated after 13 days
In short: as §1

[11] = tested on: Alopecurus myosuroides (ALOMY); test: Pre-emergence herbicidal glasshouse test on Alopecurus myosuroides; conditions: pre-emergence; 1000 g/h; evaluated after 13 days
In short: as §1

[12] = tested on: Echinochloa crus-galli (ECHCG); test: Post-emergence herbicidal glasshouse test on Echinochloa crus-galli; conditions: post-emergence; 1000 g/h; evaluated after 13 days
In short: as §1

| Compound | POST Application AMARE herbicidal damage (five point scale) [1] | POST Application SETFA herbicidal damage (five point scale) [2] | PRE Application SOLNI herbicidal damage (five point scale) [3] | POST Application IPOHE herbicidal damage (five point scale) [4] | POST Application ALOMY herbicidal damage (five point scale) [5] | POST Application SOLNI herbicidal damage (five point scale) [6] | PRE Application AMARE herbicidal damage (five point scale) [7] | PRE Application ECHCG herbicidal damage (five point scale) [8] | PRE Application IPOHE herbicidal damage (five point scale) [9] | PRE Application SETFA herbicidal damage (five point scale) [10] | PRE Application ALOMY herbicidal damage (five point scale) [11] | POST Application ECHCG herbicidal damage (five point scale) [12] |
| --- | --- | --- | --- | --- | --- | --- | --- | --- | --- | --- | --- | --- |
| CS(=O)(=O)c1ccc(-c2cn[nH]c(=O)c2O)c(Cl)c1C1=NOCC1 [Compound 2.055] | 5 (5=80-100% damage) | 5 (5=80-100% damage) | 2 (2=20-39% damage) | 3 (3=40-59% damage) | 3 (3=40-59% damage) | 5 (5=80-100% damage) | 4 (4=60-79% damage) | 2 (2=20-39% damage) | 1 (1=0-19% damage) | 1 (1=0-19% damage) | 2 (2=20-39% damage) | 5 (5=80-100% damage) |
| CC(C)[S+]([O-])c1ccccc1-c1cnn(C)c(=O)c1O (stereo not drawn) [Compound 1.043] | 5 (5=80-100% damage) | 4 (4=60-79% damage) | 1 (1=0-19% damage) | 4 (4=60-79% damage) | 2 (2=20-39% damage) | 5 (5=80-100% damage) | 1 (1=0-19% damage) | 1 (1=0-19% damage) | 1 (1=0-19% damage) | 1 (1=0-19% damage) | 1 (1=0-19% damage) | 4 (4=60-79% damage) |
| CSc1ccc(-c2c(C(F)(F)F)ccn(-c3cnn(C)c(=O)c3O)c2=O)cc1 [Compound 7.036] | 5 (5=80-100% damage) | 3 (3=40-59% damage) | 5 (5=80-100% damage) | 4 (4=60-79% damage) | 2 (2=20-39% damage) | 5 (5=80-100% damage) | 5 (5=80-100% damage) | 1 (1=0-19% damage) | 4 (4=60-79% damage) | 2 (2=20-39% damage) | 2 (2=20-39% damage) | 4 (4=60-79% damage) |
| Cn1ncc(-n2ccc(C(F)(F)F)c(-c3cccc(Cl)c3Cl)c2=O)c(O)c1=O [Compound 7.029] | 5 (5=80-100% damage) | 2 (2=20-39% damage) | 5 (5=80-100% damage) | 4 (4=60-79% damage) | 3 (3=40-59% damage) | 5 (5=80-100% damage) | 5 (5=80-100% damage) | 2 (2=20-39% damage) | 1 (1=0-19% damage) | 1 (1=0-19% damage) | 2 (2=20-39% damage) | 5 (5=80-100% damage) |
| Cn1ncc(-c2ccc(C(F)(F)F)nc2Oc2ccccc2)c(O)c1=O [Compound 4.008] | 5 (5=80-100% damage) | 2 (2=20-39% damage) | 1 (1=0-19% damage) | 4 (4=60-79% damage) | 1 (1=0-19% damage) | 5 (5=80-100% damage) | 5 (5=80-100% damage) | 1 (1=0-19% damage) | 1 (1=0-19% damage) | 1 (1=0-19% damage) | 1 (1=0-19% damage) | 2 (2=20-39% damage) |
| C=Cc1cccc(-c2c(C(F)(F)F)ccn(-c3cnn(C)c(=O)c3O)c2=O)c1 [Compound 7.011] | 5 (5=80-100% damage) | 3 (3=40-59% damage) | 5 (5=80-100% damage) | 3 (3=40-59% damage) | 1 (1=0-19% damage) | 5 (5=80-100% damage) | 5 (5=80-100% damage) | 1 (1=0-19% damage) | 2 (2=20-39% damage) | 2 (2=20-39% damage) | 2 (2=20-39% damage) | 5 (5=80-100% damage) |
| CCS(=O)(=O)c1ccccc1-c1cnn(C)c(=O)c1O [Compound 1.042] | 5 (5=80-100% damage) | 5 (5=80-100% damage) | 5 (5=80-100% damage) | 4 (4=60-79% damage) | 5 (5=80-100% damage) | 5 (5=80-100% damage) | 5 (5=80-100% damage) | 5 (5=80-100% damage) | 1 (1=0-19% damage) | 5 (5=80-100% damage) | 5 (5=80-100% damage) | 5 (5=80-100% damage) |
| COc1ccc(C(C)C)cc1-c1c(C(F)(F)F)ccn(-c2cnn(C)c(=O)c2O)c1=O [Compound 7.015] | 5 (5=80-100% damage) | 3 (3=40-59% damage) | 5 (5=80-100% damage) | 3 (3=40-59% damage) | 2 (2=20-39% damage) | 5 (5=80-100% damage) | 5 (5=80-100% damage) | 3 (3=40-59% damage) | 4 (4=60-79% damage) | 4 (4=60-79% damage) | 3 (3=40-59% damage) | 4 (4=60-79% damage) |
| COc1nn(C)c(=O)c(O)c1-c1ccc(C(F)(F)F)cc1S(C)(=O)=O [Compound 2.041] | 5 (5=80-100% damage) | 5 (5=80-100% damage) | 5 (5=80-100% damage) | 5 (5=80-100% damage) | 5 (5=80-100% damage) | 5 (5=80-100% damage) | 5 (5=80-100% damage) | 5 (5=80-100% damage) | 5 (5=80-100% damage) | 5 (5=80-100% damage) | 5 (5=80-100% damage) | 5 (5=80-100% damage) |
| O=c1c(O)c(-c2ccc(C(F)(F)F)cc2C(F)(F)F)cnn1C(F)F [Compound 1.006] | 5 (5=80-100% damage) | 1 (1=0-19% damage) | 3 (3=40-59% damage) | 5 (5=80-100% damage) | 1 (1=0-19% damage) | 5 (5=80-100% damage) | 5 (5=80-100% damage) | 2 (2=20-39% damage) | 3 (3=40-59% damage) | 1 (1=0-19% damage) | 2 (2=20-39% damage) | 1 (1=0-19% damage) |
